This passage reports TGI and GI50 results from PubChem BioAssay (NCI).

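Interpolation was linear, between the two tested concentrations surrounding the appropriate level; five concentrations were tested over 48 hours in 96-well plates. GI50 marks 50% less growth. At the TGI there is no net growth.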 Where only a bound is given, the exact number is not on record here.

Among the test systems are CAKI-1 renal; OVCAR-8 ovarian; HCT-116 colon; HOP-92 NSCLC; A498 renal; HL-60(TB) leukemia; SR leukemia; MDA-N; OVCAR-5 ovarian.
Holding throughout (test): growth of human tumour cells (NCI), 48 h

For the compound `CC(C)Oc1c(O)c2c3c(oc(=O)n3C=CC2c2ccccc2F)c1OC(C)C` (centres undefined), the TGI with CAKI-1 renal was above 100 µM; in the assay on OVCAR-8 ovarian, above 100 µM; in the assay on HCT-116 colon, 66.7 µM; in the assay with HOP-92 NSCLC, above 100 µM; in the assay with A498 renal, above 100 µM; in the assay on HL-60(TB) leukemia it was 44.3 µM. In addition, the figures for the TGI in the assay on SR leukemia, in the assay with MDA-N and in the assay with OVCAR-5 ovarian were 46.1 µM, above 100 µM and 42.9 µM, respectively.

As to `COC(=O)C(I(OS(=O)(=O)c1ccc(C)cc1)c1ccccc1)=P(c1ccccc1)(c1ccccc1)c1ccccc1`, the TGI in the assay on CAKI-1 renal was above 100 µM; in the assay on OVCAR-8 ovarian it was 48.1 µM; with HCT-116 colon, 30.2 µM; with HOP-92 NSCLC, 35.4 µM; in the assay on A498 renal, 44.7 µM; in the assay with HL-60(TB) leukemia it was 45.5 µM. Moreover, the TGI with SR leukemia stood at 49.7 µM; in the assay with MDA-N, 31.5 µM; in the assay with OVCAR-5 ovarian it was 73.1 µM.

In the case of `CCOc1c(OC)cc(CNNc2nccs2)cc1OC`, the TGI in the assay on CAKI-1 renal, in the assay on OVCAR-8 ovarian, in the assay with HCT-116 colon, with HOP-92 NSCLC, with A498 renal and in the assay with HL-60(TB) leukemia was above 100 µM each time. Further, the TGI in the assay with SR leukemia, in the assay with MDA-N and in the assay with OVCAR-5 ovarian was above 100 µM throughout.

With `C[Si](C)(C)C1=C2C(=O)c3ccccc3C(=O)C2=C([Si](C)(C)C)[C@@H]2CCCC[C@H]12`, the TGI in the assay with CAKI-1 renal, in the assay on HCT-116 colon, in the assay on HOP-92 NSCLC, in the assay with A498 renal, in the assay on HL-60(TB) leukemia and in the assay on SR leukemia was above 100 µM each time. The TGI in the assay on MDA-N and with OVCAR-5 ovarian was above 100 µM each time.

Consider `Cc1cc(C)n(CN(Cn2nc(C)cc2C)c2ccc(N(Cn3nc(C)cc3C)Cn3nc(C)cc3C)cc2)n1`, for which the TGI was 62.4 µM in the assay with CAKI-1 renal; 77.4 µM in the assay on OVCAR-8 ovarian; 31.3 µM in the assay with HCT-116 colon; 62.2 µM with HOP-92 NSCLC; 63.2 µM in the assay with A498 renal; above 100 µM with HL-60(TB) leukemia. The figures for the TGI in the assay with SR leukemia, in the assay with MDA-N and in the assay on OVCAR-5 ovarian were above 100 µM, 38.4 µM and 51.1 µM, respectively.

On to `COc1cc(OC)cc(N(C)Cc2cnc3nc(N)nc(N)c3c2C)c1`, for which the TGI in the assay on CAKI-1 renal, in the assay on OVCAR-8 ovarian, with HCT-116 colon, in the assay on HOP-92 NSCLC, with A498 renal and with HL-60(TB) leukemia was above 100 µM throughout. Further, the TGI with SR leukemia, with MDA-N and in the assay on OVCAR-5 ovarian was above 100 µM in each case.

With `C=C(Cl)C(Cl)(CBr)CCC(Cl)C(C)C` (centres undefined), the TGI in the assay with CAKI-1 renal is 5.74 µM; in the assay with OVCAR-8 ovarian, above 100 µM; in the assay on HCT-116 colon, 5.96 µM; in the assay with HOP-92 NSCLC it was 3.52 µM; in the assay on A498 renal, 14.4 µM; in the assay with SR leukemia, above 54.7 µM. Further, the TGI in the assay on MDA-N stood at 16.3 µM; in the assay on OVCAR-5 ovarian it was 23.9 µM.

For the compound `N#C/C(=C/NC(=S)Nc1ccc(S(N)(=O)=O)cc1)C(N)=O`, the TGI with CAKI-1 renal, in the assay on OVCAR-8 ovarian, in the assay on HCT-116 colon, in the assay with HOP-92 NSCLC, in the assay with A498 renal and in the assay with HL-60(TB) leukemia was above 100 µM in each case. Moreover, the TGI in the assay on SR leukemia, with MDA-N and in the assay on OVCAR-5 ovarian was above 100 µM each time.

Turning to `CC(C)(C)OC(=O)N1CC(COS(C)(=O)=O)c2ccc(O)cc21` (centres undefined), the TGI with CAKI-1 renal turned out to be 9.62 µM; in the assay with OVCAR-8 ovarian, 4.51 µM; with HCT-116 colon, 10.3 µM; with HOP-92 NSCLC, 5.56 µM; with A498 renal it was 4.38 µM; in the assay on HL-60(TB) leukemia, 3.98 µM. For the same compound, the TGI in the assay on SR leukemia worked out at 5.31 µM; in the assay with MDA-N, 3.98 µM; with OVCAR-5 ovarian, 5.86 µM.

On to `CC(=O)CC(=O)Nn1c(-c2cccs2)nc2ccc(I)cc2c1=O`, for which the TGI in the assay on CAKI-1 renal is above 74 µM; in the assay with OVCAR-8 ovarian, above 100 µM; with HCT-116 colon it was above 100 µM; in the assay with HOP-92 NSCLC, above 100 µM; with A498 renal, 43.1 µM; in the assay on HL-60(TB) leukemia, above 100 µM. In addition, the TGI with SR leukemia, in the assay on MDA-N and with OVCAR-5 ovarian was above 100 µM each time. In the assay on A498 renal, the GI50 was 19.9 µM.

In the case of `CC(=S)NC1C(Oc2ccc3c(C)cc(=O)oc3c2)OC(CO)C(O)C1O` (centres undefined), the TGI in the assay with CAKI-1 renal, in the assay on OVCAR-8 ovarian, in the assay on HCT-116 colon, in the assay on HOP-92 NSCLC, with A498 renal and in the assay on HL-60(TB) leukemia was above 100 µM each time. The TGI with SR leukemia, in the assay on MDA-N and in the assay with OVCAR-5 ovarian was above 100 µM each time.

On to `CC(C)(Oc1ccc(C2C[C@H]2Cl)cc1)C(=O)O` (some centres undefined), for which the TGI in the assay on CAKI-1 renal, in the assay on HCT-116 colon, in the assay with HOP-92 NSCLC, in the assay with A498 renal, with HL-60(TB) leukemia and in the assay on SR leukemia was above 100 µM throughout. For the same compound, the TGI in the assay with MDA-N and in the assay on OVCAR-5 ovarian was above 100 µM throughout.

With `CC(C)(C)C(=O)C(C#N)C(=O)C(C)(C)C`, the TGI with CAKI-1 renal, in the assay on OVCAR-8 ovarian, with HCT-116 colon, in the assay on HOP-92 NSCLC, in the assay with A498 renal and in the assay with HL-60(TB) leukemia was above 100 µM each time. Moreover, the TGI in the assay on SR leukemia is 50 µM; in the assay with MDA-N, above 100 µM; in the assay with OVCAR-5 ovarian, above 100 µM.

Regarding `CN1CCN(c2nc3c(c(=O)n(C)c(=O)n3C)n2C)CC1`, the TGI in the assay with CAKI-1 renal, in the assay with OVCAR-8 ovarian, in the assay with HCT-116 colon, in the assay with HOP-92 NSCLC, with A498 renal and with HL-60(TB) leukemia was above 100 µM each time. The TGI with SR leukemia, with MDA-N and with OVCAR-5 ovarian was above 100 µM throughout.
